Measured values published in BindingDB's records for doi:10.1016/j.bmcl.2006.08.053 (Merck Research Laboratories, 2006).

Test: Release of camptothecin-induced cell cycle arrest in NCI-H1299 cells mediated by CHEK1 inhibition

With Cn1cc(-c2ccc3[nH]c(=O)c(-c4cc5cc(CN6CCCCC6)ccc5[nH]4)cc3c2)cn1 [6-(1-methyl-1H-pyrazol-4-yl)-3-(5-(piperidin-1-ylmethyl)-1H-indol-2-yl)quinolin-2(1H)-one] the EC50 was 0.13 µM.

Compound N#Cc1ccc2[nH]c(=O)c(-c3cc4cc(CN5CCCCC5)ccc4[nH]3)cc2c1 [2-oxo-3-(5-(piperidin-1-ylmethyl)-1H-indol-2-yl)-1,2-dihydroquinoline-6-carbonitrile] has an EC50 of 0.17 µM.

In the case of COc1cc(-c2ccc3[nH]c(=O)c(-c4cc5cc(CN6CCCCC6)ccc5[nH]4)cc3c2)ccc1O [6-(4-hydroxy-3-methoxyphenyl)-3-(5-(piperidin-1-ylmethyl)-1H-indol-2-yl)quinolin-2(1H)-one], the EC50 is reported as > 10 µM.

O=c1[nH]c2ccc(-c3cn[nH]c3)cc2cc1-c1cc2cc(CN3CCOCC3)ccc2[nH]1 [3-(5-(morpholinomethyl)-1H-indol-2-yl)-6-(1H-pyrazol-4-yl)quinolin-2(1H)-one] showed an EC50 of 0.17 µM.

O=c1[nH]c2ccc(-c3cccc(O)c3)cc2cc1-c1cc2cc(CN3CCCCC3)ccc2[nH]1 [6-(3-hydroxyphenyl)-3-(5-(piperidin-1-ylmethyl)-1H-indol-2-yl)quinolin-2(1H)-one] showed an EC50 of 6.3 µM.

O=c1[nH]c2ccc(-c3cnsc3)cc2cc1-c1cc2cc(CN3CCCCC3)ccc2[nH]1 [6-(isothiazol-4-yl)-3-(5-(piperidin-1-ylmethyl)-1H-indol-2-yl)quinolin-2(1H)-one] showed an EC50 of 0.19 µM.

CC(=O)N1CCN(Cc2ccc3[nH]c(-c4cc5cc(-c6cn[nH]c6)ccc5[nH]c4=O)cc3c2)CC1 [3-(5-((4-acetylpiperazin-1-yl)methyl)-1H-indol-2-yl)-6-(1H-pyrazol-4-yl)quinolin-2(1H)-one] showed an EC50 of 0.87 µM.

In the case of O=c1[nH]c2ccc(-n3nccn3)cc2cc1-c1cc2cc(CN3CCCCC3)ccc2[nH]1 [3-(5-(piperidin-1-ylmethyl)-1H-indol-2-yl)-6-(2H-1,2,3-triazol-2-yl)quinolin-2(1H)-one], the EC50 is reported as 0.88 µM.

With CC(=O)N1CCN(Cc2ccc3[nH]c(-c4cc5cc(-c6cnn(C)c6)ccc5[nH]c4=O)cc3c2)CC1 [3-(5-((4-acetylpiperazin-1-yl)methyl)-1H-indol-2-yl)-6-(1-methyl-1H-pyrazol-4-yl)quinolin-2(1H)-one] the EC50 was 0.42 µM.

Work on N#Cc1ccc2[nH]c(=O)c(-c3cc4cc(CN5CCC(CN)CC5)ccc4[nH]3)cc2c1 [3-(5-((4-(aminomethyl)piperidin-1-yl)methyl)-1H-indol-2-yl)-2-oxo-1,2-dihydroquinoline-6-carbonitrile] yielded an EC50 of 3.7 µM.

For NCC1CCN(Cc2ccc3[nH]c(-c4cc5cc(C(N)=O)ccc5[nH]c4=O)cc3c2)CC1 [3-(5-((4-(aminomethyl)piperidin-1-yl)methyl)-1H-indol-2-yl)-2-oxo-1,2-dihydroquinoline-6-carboxamide], the EC50 was 3.9 µM.

Compound O=c1[nH]c2ccc(-c3cc[nH]n3)cc2cc1-c1cc2cc(CN3CCCCC3)ccc2[nH]1 [3-(5-(piperidin-1-ylmethyl)-1H-indol-2-yl)-6-(1H-pyrazol-3-yl)quinolin-2(1H)-one] has an EC50 of 0.25 µM.

O=c1[nH]c2ccc(-n3ccnn3)cc2cc1-c1cc2cc(CN3CCCCC3)ccc2[nH]1 [3-(5-(piperidin-1-ylmethyl)-1H-indol-2-yl)-6-(1H-1,2,3-triazol-1-yl)quinolin-2(1H)-one] gave an EC50 of 0.23 µM.

For NC(=O)c1ccc2[nH]c(=O)c(-c3cc4cc(CN5CCCCC5)ccc4[nH]3)cc2c1 [2-oxo-3-(5-(piperidin-1-ylmethyl)-1H-indol-2-yl)-1,2-dihydroquinoline-6-carboxamide], the EC50 was 0.52 µM.

O=c1[nH]c2ccc(Br)cc2cc1-c1cc2cc(CN3CCCCC3)ccc2[nH]1 [6-bromo-3-(5-(piperidin-1-ylmethyl)-1H-indol-2-yl)quinolin-2(1H)-one] gave an EC50 of 0.46 µM.

Cn1nnc(-c2ccc3[nH]c(=O)c(-c4cc5cc(CN6CCCCC6)ccc5[nH]4)cc3c2)n1 [6-(2-methyl-2H-tetrazol-5-yl)-3-(5-(piperidin-1-ylmethyl)-1H-indol-2-yl)quinolin-2(1H)-one] showed an EC50 of 1.3 µM.

In the case of O=c1[nH]c2ccc(-c3cn[nH]c3)cc2cc1-c1cc2cc(CN3CCC(F)CC3)ccc2[nH]1 [3-(5-((4-fluoropiperidin-1-yl)methyl)-1H-indol-2-yl)-6-(1H-pyrazol-4-yl)quinolin-2(1H)-one], the EC50 is reported as 0.12 µM.

O=c1[nH]c2ccc(-c3cn[nH]c3)cc2cc1-c1cc2cc(CN3CCCCC3)ccc2[nH]1 gave an EC50 of 0.097 µM.

O=c1[nH]c2ccc(-n3ccnc3)cc2cc1-c1cc2cc(CN3CCCCC3)ccc2[nH]1 [6-(1H-imidazol-1-yl)-3-(5-(piperidin-1-ylmethyl)-1H-indol-2-yl)quinolin-2(1H)-one] showed an EC50 of 0.32 µM.

With COCC(=O)N1CCN(Cc2ccc3[nH]c(-c4cc5cc(-c6cn[nH]c6)ccc5[nH]c4=O)cc3c2)CC1 [3-(5-((4-(2-methoxyacetyl)piperazin-1-yl)methyl)-1H-indol-2-yl)-6-(1H-pyrazol-4-yl)quinolin-2(1H)-one] the EC50 was 1.14 µM.
